# Like-named read-outs stand apart in the source and are kept apart here.
# Experiments:
# XA binding sites = assay: Displacement of [3H]XA specific binding by competitors; set-up: species or system rat; settings: for displacement of radioactive XA specific binding: compound at 200 µM, displacement by 200 µM XA set at 100%
# Procedure: Membranes (from brain or cell cultures) were incubated for 30 min at 0°C in 50 mM Pipes buffer, pH 7.4 in the presence of [^3H]-XA (2 µCi per µmole total XA at various concentrations). Non-specific binding was determined with 1 mM non-radioactive XA in the medium. Bound from free ligand was separated by rapid filtration on 25 mm Whatman GF/B filters and washing with incubation buffer (3×3 ml at 0°C). Radioactivity on filters was measured by liquid scintillation counting.
# Two approaches were used for screening the pharmacological properties of XA specific binding. First, we tested at rather high concentration (200 µM) a battery of putative ligands for these sites. […] The fact that glutamate displaced not more than 10% of radioactive XA eliminates possible binding of XA on glutamate receptors under our conditions.
# [1] = test system: differentiated NCB-20 cells; assay: Cell-attached patch-clamp recording; assay type: cell-based, mouse neuroblastoma / Chinese hamster brain cell hybrid
# Procedure: (§1) NCB-20 cells were plated at low density (10^4 cells/dish) in 35-mm dishes and differentiated with 1 mM db-cAMP. The culture medium was replaced twice a week and the cells were used after 5 days in culture. Cells were recorded either in cell-attached or whole-cell configuration of the patch-clamp technique using an Axopatch-B200 amplifier (Axon Instruments, CA, USA) in its voltage-clamp mode. […] Junction potentials were calculated using the routine procedure in the Clampex software (Axon instruments, CA, USA) and taken into account for current-voltage (I–V) relationships and reversal potential calculation according to the recording configuration.
# For cell-attached recording the pipette was filled with a medium containing (in mM): N-Methyl-D-Glucamine (NMDG) chloride 140, KCl 1, MgCl2 10, EGTA 5, TEA-Cl 15, HEPES 10, pH = 7.4. To maintain the cell membrane potential close to zero, the recorded cells were continuously superfused with a bath solution containing (in mM): KCl 140, NaCl 1, MgCl2 1, CaCl2 0.5, EGTA-K 1, HEPES 10, D-glucose 10, pH = 7.4. […] Drugs were dissolved in DMSO and diluted in control solutions such that DMSO in the applied solution was diluted by a factor of at least 10^4. Drugs were applied to the recorded cells through a multi-barrel perfusion system, the rapid solution exchanger RCS-160 (Bio-Logic, Grenoble, France). […] The first tube was filled with control solution and was used to maintain a continuous superfusion of the recorded cell between applications. The selected tube was placed in front of the cell by axial rotation of calibrated angles and the application started when the selected tube takes place in front of the cell.
# (§2) Data were analyzed offline using the clampfit routine of the Pclamp software package. The given results are means±SEM and statistical significance of the difference between means was determined using one way ANOVA followed by Dunnett's Multiple Comparison test.
# NCB-20 cells = assay: Fluo-4 monitoring of [Ca2+]i changes; assay type: cell-based, mouse neuroblastoma / Chinese hamster brain cell hybrid
# Procedure: The method of cellular calcium measurement used was as described previously. Briefly, NCB-20 cells were plated in glass-bottomed culture dishes and incubated at 37°C for four days. […] Then the cells were washed with Krebs for 30 min at room temperature in the dark. All settings of the laser (Argon-Krypton laser, turned to 488 nm), optical filter (BF 530/30) and microscope (Leica TCS-SP confocal inverted microscope) as well as data acquisition were controlled by the LCS (Leica Confocal System) software.
# Images were recorded at a frequency of 0.1 Hz. Analysis was performed by defining regions of interest (ROI) in the first image. Values are expressed as the percentage of fluorescence change with respect to control and calculated as F/F 0 (%) (where F is the fluorescence intensity at a given time and F 0 the basal fluorescence intensity at the beginning of the experiment).
# The cells were continuously superfused with normal Krebs medium and transiently submitted to the tested drug using a peristaltic pump with a flow rate of 1 ml/min. For each analyzed cell, the mean and the standard deviation (SD) of the F/F 0 of fluorescence were measured during 1–2 min before (base line) and after (signal) drug application and compared. Statistical significance of the difference between means was determined using one way ANOVA followed by Dunnett's Multiple Comparison Test for repeated measurements on absolute levels of fluo-4 fluorescence.
# [2] = test system: differentiated NCB-20 cells; assay: cells
# Procedure: as §1, §2
# [3] = peripheral administration; cited from earlier work
# [4] = test system: 75 transmembrane and soluble receptors, ion channels and monoamine transporters; assay: Cerep high-throughput profile screening; assay type: binding; settings: XA at 10 µM
# Procedure: Secondly, to extend the pharmacological profile of XA, this compound was tested on high-throughput profile screening which involved a collection of 75 transmembrane and soluble receptors, ion channels and monoamine transporters (Cerep, France Laboratories, Poitiers). XA was tested on these collections of proteins at 10 µM concentration.
# [5] = test system: XA binding sites on crude synaptosomal membranes from rat brain; assay: [3H]-XA saturation and kinetic binding on crude synaptosomal membranes from rat brain
# Procedure: Brains were rapidly extracted from adult male Wistar rats killed by decapitation after being stunned. All the following procedures were done with buffers cooled at 0°C. Brains were homogenized with a motor driven Teflon/glass apparatus in 10 vol (W/V) of sucrose 0.32 M containing potassium phosphate buffer pH 7.2 and 2 mM EDTA. After centrifugation at 1,500 g for 10 min to remove the crude nuclear fraction, the supernatant was spun at 35,000 g for 20 min. The pellet obtained was resuspended in lysis buffer (2 mM EDTA/water pH 6.0 at 0°C, spun at 100,000 g for 20 min). After washing the pellet with potassium phosphate buffer 50 mM, pH 6.0, the crude membrane fraction was directly used for further experiments or stored at −80°C.
# (§3) Bound from free ligand was separated by rapid filtration on 25 mm Whatman GF/B filters and washing with incubation buffer (3×3 ml at 0°C). Radioactivity on filters was measured by liquid scintillation counting.
# [6] = test system: rat brain synaptosomal membranes; settings: read-out: EC50 of GTP-γ-S binding; XA 0.5 to 50 µM, 5 µM GDP, 20 mM MgCl2
# Procedure: The Scintillation Proximity Assay (SPA) of Amersham was used. […] Brain synaptosomal membranes were thus incubated in assay buffer (pH 7.4) containing 20 mM HEPES, 100 mM NaCl, 20 mM MgCl2 with 0.3 nM [^35S]GTP-γ-S and 5 µM GDP for 30 min at room temperature. Non-specific binding was determined in the presence of 200 µM GTP. WGA SPA beads were added and the mixture was incubated at room temperature for a further 30 min. The plates were centrifuged at 1,200 g for 5 min and SPA cpm were determined by scintillation counting.
# [7] = test system: XA binding sites on NCB-20 neuroblastoma cells; assay: [3H]-XA saturation binding on NCB-20 neuroblastoma cell membranes; set-up: species or system mouse neuroblastoma / Chinese hamster brain cell hybrid; settings: NCB-20 membranes, read-out: dissociation constant (Kd)
# Procedure: (§4) Neurons were scraped into potassium phosphate buffer 50 mM, EDTA 2 mM, pH 6.0 at 0°C. After centrifugation at 2,000 g for 3 min to eliminate nuclei and large fragments, the supernatant was spun down at 15,000 g for 10 min; the pellet was washed with the same buffer and directly used for binding experiments.
# as §3
# various cell cultures = settings: concentration of 10 µM; cited from earlier work
# [8] = test system: XA binding sites on IMR-32 neuroblastoma cells; assay: [3H]-XA saturation binding on IMR-32 neuroblastoma cell membranes; set-up: species or system human; settings: IMR-32 membranes, read-out: dissociation constant (Kd)
# Procedure: Cultures were maintained for one week at 37°C in the presence of CO2 (5%).
# as §4, §3
# [9] = frequency histogram of the illustrated XA response
# [10] = illustrated response to 10 µM XA, NMDG-Cl pipette, ramp protocol
smiles,measurement,setting,value
NCCCC(=O)O [GABA],displacement of radioactive XA specific binding,XA binding sites,very low potency
O=C(O)c1cc(O)c2c(Cl)cc(Cl)c(O)c2n1 [NCS-482],functional properties in patch-clamp experiments,[1],agonistic
same,IC50,XA binding sites,350 nM
Nc1cccc2c(O)cc(C(=O)O)nc12 [NCS-486],functional properties in patch-clamp experiments,[1],antagonistic
same,reduction of the agonist-induced current-response,[1]; NCS-486 20 µM co-applied with 5 µM XT-21,86.1±5.0%
same,reduction of the agonist-induced current-response,[1]; NCS-486 20 µM co-applied with 10 µM XA,88.3±3.8%
same,reduction of the agonist-induced current-response,[1]; NCS-486 20 µM co-applied with 18 µM NCS-482,88.7±3.2%
same,effect when applied alone,"[1]; NCS-486 20 µM, 6 cells tested",did not have any effect by itself
same,fluo-4 fluorescence (F/F0),"NCB-20 cells; 100 µM NCS-486 applied alone, 5 min",83.9±2.7%
same,fluo-4 fluorescence (F/F0),"NCB-20 cells; 100 µM NCS-486 with 25 µM XA, 5 min",86.9±0.7%
same,IC50,XA binding sites,14600 nM
"O=C(O)c1cc(O)c2cccc(O)c2n1 [XA, Xanthurenic acid]",Hill coefficient,[2]; Hill fit of dose-response,3.5
same,maximal conductance,[2]; Hill fit of dose-response,12.5 nS
same,cells tested showing an XA induced response,"[2]; XA 1 to 30 µM, whole-cell",about 71%
same,reversal potential of XA-induced current,[2]; high chloride pipette medium,−3.3±4.0 mV
same,reversal potential of XA-induced current,[2]; low chloride pipette medium,−3.8±2.5 mV
same,EC50,[2]; read-out: EC50 of XA activated conductance,11700 ± 2200 nM
same,brain penetration,[3],penetrates the brain freely
same,"Er1, global mean value","[1]; all XA responses, mean ± SEM",−32.2±4.0 mV
same,"Er2, global mean value","[1]; all XA responses, mean ± SEM",−13.9±1.1 mV
same,"Er3, global mean value","[1]; all XA responses, mean ± SEM",−1.0±0.6 mV
same,"Er4, global mean value","[1]; all XA responses, mean ± SEM",11.5±0.8 mV
same,"Er5, global mean value","[1]; all XA responses, mean ± SEM",31.1±2.0 mV
same,"Er1, mean of Gaussian fit",[1]; [9],−23.2 mV
same,"Er2, mean of Gaussian fit",[1]; [9],−9.6 mV
same,"Er3, mean of Gaussian fit",[1]; [9],0.8 mV
same,"Er4, mean of Gaussian fit",[1]; [9],12.6 mV
same,"Er5, mean of Gaussian fit",[1]; [9],20.3 mV
same,"reversal potential (Er), position 1 (initial value)",[1]; [10],−9 mV
same,"reversal potential (Er), position 2",[1]; [10],about 14 mV
same,"reversal potential (Er), position 3",[1]; [10],~25 mV
same,"reversal potential (Er), position 4",[1]; [10],~−1 mV
same,"reversal potential (Er), position 5",[1]; [10],~−26 mV
same,competition on the binding of specific ligands of the 75 proteins,[4],No significant competitive properties
same,"effect on adenosine, benzodiazepine, dopamine, GABA, canabinoid, histamine, muscarinic, opioid, purinergic and serotonin receptors",[4],no effect
same,Kob,"[5]; [3H]-XA 0.2 µM, pH 7.4, 0°C",1.44 min⁻¹
same,Kd,"[5]; from Kob and Koff, read-out: calculated Kd (from rate constants)",1400 nM
same,Kd,"[5]; saturation experiments, crude brain synaptosomal membranes, pH 7.4, 0°C, read-out: dissociation constant (Kd)",740 nM
same,EC50,[6],2000 ± 1900 nM
same,persistence of signal before returning to basal levels,NCB-20 cells; 10 µM XA,about 5 min
same,start of signal after XA application,NCB-20 cells; 10 µM XA,about 1 min
same,intensity of fluo-4 signal above basal levels,"NCB-20 cells; 10 µM XA, 6 min application",60–80%
same,fluo-4 fluorescence (F/F0),NCB-20 cells; 25 µM XA after 5 min washout of NCS-486,134.9±6.5%
same,mean apparent maximum of the response (F/F0),NCB-20 cells; XA 1 to 10 µM,about 157±3%
same,EC50,NCB-20 cells; read-out: EC50 of first (activation) phase of Ca2+ response,1400 nM
same,Kd,[7],1300 nM
same,IC50,XA binding sites,300 nM
same,toxicity in cell cultures,various cell cultures,apoptotic-like cell death
same,Kd,[8],750 nM
O=C(O)c1cc(O)c2cc(-c3ccccc3)cc(O)c2n1 [XT-21],functional properties in patch-clamp experiments,[1],agonistic
same,response amplitude relative to 10 µM XA,"[1]; XT-21 5 µM, cell-attached",about 2.5 fold
same,response amplitude relative to 18 µM NCS-482,"[1]; XT-21 5 µM, cell-attached",~1.5 fold
same,IC50,XA binding sites,4600 nM
O=C(O)c1cc(=O)c2ccccc2[nH]1 [kynurenic acid],displacement of radioactive XA specific binding,XA binding sites,30%
O=C(O)c1ccccn1 [picolinic acid],IC50,XA binding sites,41000 ± 5000 nM
same,displacement of radioactive XA specific binding,XA binding sites,60%
O=C(O)c1cccnc1C(=O)O [quinolinic acid],displacement of radioactive XA specific binding,XA binding sites,40%
